# Source: patent US4055640A, “Compositions and methods for controlling the growth of bacteria, fungi and algae using certain derivatives of N-(2,2-dichlorovinyl)salicylamides” (Nippon Kayaku Co., Ltd., priority 1975, dated 1977)
# Columns and labels:
# [1] = tested on: Penicillium Citrinum; assay: Region of growth-inhibition around treated cotton cloth (Example 26); format: cell-based; details: emulsifiable concentrate diluted 100 times
# Experimental: (§1) The emulsifiable concentrates which were prepared by Example 20 were diluted with water 100 times to form an emulsion. A cloth of cotton was soaked into each emulsion for 2 minutes. The clothes were dried at room temperature and cut into a square of which a side was 1 cm long. Each kind of test bacteria and fungi was inoculated, separately, on plates of potato-agar and one square cloth placed on each of such plates. Test bacteria and fungi were cultivated at 28° C for 4 days. The width of the region of growth-inhibition which was formed a circumference of the cloth was measured.
# [2] = tested on: Aspergillus niger; assay: as above; format: cell-based; details: emulsifiable concentrate diluted 100 times
# Experimental: as §1
# [3] = tested on: Bacillus subtilis; assay: as above; format: cell-based; details: emulsifiable concentrate diluted 100 times
# Experimental: as §1
# [4] = tested on: Staphylococcus oureus; assay: as above; format: cell-based; details: emulsifiable concentrate diluted 100 times
# Experimental: as §1
# [5] = tested on: seedling blight of rice plant (pathogen Fusarium sp. and Rhizoctonia sp.); assay: Exterminating test on seedling blight of rice plant (Experimental Example 1); format: in vivo; details: soil, 408 h, 0.25g/box a.i., 5% dust mixed with soil; read-out: Percentage of healthy seedlings
# Experimental: Exterminating test on seedling blight of rice plant Nursery boxes (60 × 30 × 3 cm) were filled with soil which were contaminated with pathogen (Fusarium sp. and Rhizoctonia sp.) The dust in which the present compound was contained in a ratio of 5% by weight was added in the box in a ratio of 5 grams per box and mixed well with soil. Thereafter, seeds of rice plant (variety: Nihonbare) were sowed in drills at a rate of 0.3 liter per box and grown up in a lighting chamber at 17° C. After 7 days from the sowing, the boxes were carried out in the field. Furthermore, 10 days thereafter the observations were made. Four percent (4%) dust of 3-hydroxy-5-methyl isoxazol (hereinafter referred to as hydroxyisoxazol) on the market was used as a control and tested by the same method. The test results are shown in Table 2 with a "percentage of healthy seedlings". The percentage of healthy seedlings was calculated as follows: […]
# [6] = tested on: cucumber seedlings (variety: Sagamihanjiro); assay: Phytotoxicity on cucumber seedlings (Experimental Example 2); format: in vivo; details: 500 ppm
# Experimental: (§2) The cucumber seeds (variety: Sagamihanjiro) were sown in pots (diameter 18 cm). Eighty percent (80%) wettable powder (contents of active compound: 80%) of the present invention was diluted with water to obtain a suspension. The suspension was sprayed over the cucumber seedlings of the stage of 3-4 leaves in an amount of 20 ml per pot. After 24 hours, these pots were inoculated by means of spray of spore suspension of Cladosporium cucumerinum. The thus-inoculated seedlings were placed in a moist chamber at 20° C for 24 hours. The pots were continuously kept in a greenhouse at 20° C. The following wettable powders on the market were used as controls.
# [7] = tested on: seedlings of kidney beans (variety: Orient); assay: Phytotoxicity on kidney beans (Experimental Example 5); format: in vivo; details: 1,000 ppm
# [8] = tested on: Cladosporium cucumerinum (cucumber scab); assay: Exterminating test on cucumber scab (Experimental Example 2); format: in vivo; design: scale not given here; details: 500 ppm, 5 days after inoculation
# Experimental: Exterminating test on cucumber scab
# as §2
# 70% wettable powder of 1,2-bis (3-methoxy carbonyl-2-thioureid) benzene (hereinafter referred to as "thiophanate methyl") on the market.
# 75% wettable powder of ethylene bis (dithiocarbamic acid) manganese (hereinafter referred to as "maneb") on the market. After 5 days of the inoculation, degrees attached by the pathogen were observed and the results were shown in Table 3 with an "Infected Index". The "Infected Index" was calculated as follows: [formula] A : Number of leaves which were killed by hard attack B : Number of leaves severely attacked
# C : number of leaves slightly attacked
# D : number of healthy leaves
# [9] = tested on: botrytis cinerea (gray mold); assay: Exterminating test on gray mold of tomato (Experimental Example 5); format: in vivo; design: scale not given here; details: 1,000 ppm, 48 hours after inoculation, kidney bean leaves
# Experimental: Exterminating test on gray mold of tomato The seedlings of kidney beans (variety: Orient) of 5-6 leaves stage were employed in this test. Eighty percent (80%) wettable powder of the present invention was diluted with water and sprayed over the seedlings in an amount of 10 ml per pot. The leaves were cut from the plant at 24 hours after spraying, and placed in the petri dishes (12 cm in diameter). Thereafter disks (5 mm in diameter) were cut with a cork borer from potato dextrose agar on which the pathogen (botrytis cinerea) was cultured. The disks were placed on the leaves. The dishes were placed in such a moistural condition as to cause the pathogen to propagate. Thiophanate methyl 70% wettable powder on the market was used as a control and tested by the same method. After forty eight (48) hours after inoculation, diameters of the lesions were observed, and an "Effect Index" was calculated as follows; [formula]
# [10] = tested on: green algae; assay: Degree of propagation on slime test boards (Example 27); format: cell-based; details: same method, shaking culture for 2 days
# Experimental: (§3) Zero point zero two (0.02) part of active compounds in the form of 10% water soluble concentrate which was prepared by Example 23 was added into 100 parts of Waxman's liquid medium. Peices of Wood iron (hereafter referred to as the slime test boards) were soaked into the Waxman's liquid medium. The bacteria which were gathered from circular water system were inoculated upon the Waxman's liquid medium and incubated at 27°-34° C by shaking culture for 2 days. The degree of propagation of the bacteria on the slime test boards was examined.
# (§4) Thegrowth-inhibiting activity of active compounds against the fungi and the green algae was also examined by the same method as mentioned above.
# (§5) The degree of propagation of the bacteria, fungi or green algae on the test boards is defined in terms of the following symbols.
# [11] = tested on: fungi; assay: as above; format: cell-based; details: same method, shaking culture for 2 days
# Experimental: as §3, §4, §5
# [12] = tested on: bacteria gathered from circular water system; assay: as above; format: cell-based; details: shaking culture for 2 days
# Experimental: as §3, §4, §5
# [13] = tested on: summer orange seedlings; assay: Phytotoxicity on summer orange seedlings (Experimental Example 6); format: in vivo; details: 1,000 ppm
# Experimental: (§6) Exterminating test on citrus canker. 4-year-old summer orange seedlings, planted in unglazed pots having a diameter of 20 cm, were employed in this test. Eighty percent (80%) wettable powder of the present invention was diluted with water, and sprayed over the seedlings in an amount of 50 ml per pot. The leaves of the seedlings were inoculated Xanthomonas citri by means of a needle. After the inoculation, the seedlings were maintained in a moist chamber at 25° C for 24 hours. Then the pots were transferred into the greenhouse. Streptomycin 20% wettable powder was used as a control, and tested by the same method. After 2 weeks after the inoculation, degrees of disease attack were observed, and an "Effect Index" was calculated as follows: [formula]
# [14] = tested on: Aspergillus niger, Penicillium citrinum, Cladosporium harbarum and chaetomium globosum; assay: Degree of growth inhibition of fungi on treated beach plates (Example 25); format: cell-based; design: scale not given here; details: numerical rating, 2 weeks
# Experimental: The emulsifiable concentrates which were prepared by Example 20 were diluted with water 400 times and 800 times to form emulsions.
# The square plates of beach of which a side was 5 cm long and thickness was 5 mm were dipped into the emulsion for 2 minutes and dried for 24 hours at room temperature.
# The square plates were placed on the surface of agar plates. The suspensions which contained spores of Aspergillus niger, Penicillium citrinum, Cladosporium harbarum and chaetomium globosum were respectively sprayed on the agar plates and the square plates.
# The test fungi were cultivated in the incubator at the humidity of 95% and the temperature of 28° C for 2 weeks. The degree of growth inhibition is defined in terms of the following numerical ratings.
# [15] = tested on: Fusarium wilt of cucumber; assay: Exterminating test on Fusarium wilt of cucumber (Experimental Example 4); format: in vivo, Fusarium oxysporum f, cucumerinum; details: Fusarium, soil, 336 h, 500 ppm, soil drench 100 ml per pot, two weeks; read-out: Percentage of healthy seedlings
# Experimental: Exterminating test on Fusarium wilt of cucumber Twenty (20) grams of infected soil was added uniformly into each pot which was filled with steam sterilized field soil, then 18 seeds of cucumber (variety; Tokiwazibai) were sowed in each pot. Eighty percent (80%) wettable powder of the present invention was diluted with water to obtain a suspension, and each pot was drenched with the suspension in an amount of 100 ml. Fifty percent (50%) wettable powder of methyl-1-(butylcarbamoyl) 2-benzimidazol carbamate (hereinafter referred to as Benlate) on the market was used as a control and tested by the same method. After two weeks of planting, degrees attacked by the pathogen was observed and a "percentage of healthy seedlings" was calculated as follows: [formula]
# [16] = tested on: Rhizoctonia solani (damping-off of cucumber); assay: Exterminating test on damping-off of cucumber (Experimental Example 3); format: in vivo; details: Rhizoctonia solani, soil, 240 h, 1,000 ppm, soil drench 50 ml per pot, 10 days; read-out: Percentage of healthy seedlings
# Experimental: Exterminating test on damping-off of cucumber
# The pots (diameter, 12 cm) were filled with field soil and then soil infected by adding Rhizoctonia solani in an amount of 5 grams per pot uniformly into the pots. Thereafter, 10 seeds of cucumber (variety: Azumamidori) were sown in each pot.
# Eighty percent (80%) wettable powder of the present invention was diluted with water to obtain a suspension and each pot was drenched with the suspension in an amount of 50 milliliters. Then, the pots were transferred to the greenhouse. Fifty percent (50%) wettable powder of pentachloronitro benzene (hereinafter referred to as PCNB) on the market was used as a control and tested by the same method. After 10 days of the inoculation, degrees attacked by the pathogen were observed and a "Percentage of healthy seedlings" was calculated. The "Percentage of healthy seedlings" was calculated as follows: [formula]
# [17] = tested on: Xanthomonas citri (citrus canker); assay: Exterminating test on citrus canker (Experimental Example 6); format: in vivo; details: Xanthomonas citri, 336 h, read-out: Effect Index, 1,000 ppm, 2 weeks after inoculation
# Experimental: as §6
SMILES,width of the region of growth-inhibition [1] [mm],width of the region of growth-inhibition [2] [mm],width of the region of growth-inhibition [3] [mm],width of the region of growth-inhibition [4] [mm],Percentage of healthy seedlings at 0.25 g/box [5] [%],Phytotoxicity [6],Phytotoxicity [7],Infected Index [8],Effect Index [9],Degree of propagation [10],Degree of propagation [11],Degree of propagation [12],Phytotoxicity [13],Degree of growth inhibition ([14]; 0.0125 %),Degree of growth inhibition ([14]; 0.025 %),pest or weed control at 500 ppm [15] [%],pest or weed control at 1000 ppm [16] [%],pest or weed control at 1000 ppm [17] [%]
"O=C(NC=C(Cl)Cl)c1cc(Cl)ccc1O [Compound No. 2, N-(2',2'-dichlorovinyl)-5-chlorosalicylamide]",5,5,9,10,72.4,Nil,Nil,11.0,79,-,-,-,Nil,2,3,,,
"CC(=O)Oc1ccc(Cl)cc1C(=O)NC=C(Cl)Cl [Compound No. 7, O-acetyl-N-(2',2'-dichlorovinyl)-5-chlorosalicylamide]",10,10,12,11,70.2,,,,,-,-,-,,5,5,76.5,,
CCC(=O)Oc1ccccc1C(=O)NC=C(Cl)Cl [Compound No. 9],6,6,9,7,69.8,,,,,-,-,-,,3,3,75,90,
CCCC(=O)Oc1ccccc1C(=O)NC=C(Cl)Cl [compound 10],,,,,72.1,,Nil,,88,-,-,+ (the area of propagation is 1-25% on the slime test boards.),,3,3,70,100,
CC(C)C(=O)Oc1ccccc1C(=O)NC=C(Cl)Cl [compound 11],,,,,68.7,Nil,Nil,10.1,81,,,,,,,65.5,100,
O=C(CCl)Oc1ccccc1C(=O)NC=C(Cl)Cl [compound 13],7,6,7,6,62,,,,,-,-,-,Nil,2,3,70.5,100,67.3
CCOC(=O)Oc1ccccc1C(=O)NC=C(Cl)Cl [compound 17],6,5,8,7,68.3,,,,,+ (the area of propagation is 1-25% on the slime test boards.),,-,Nil,2,3,47.5,85,68.3
